Data from patent US6649628B1, “N-[2-hydroxy-3-(1-piperidinyl)propoxy]pyridine-1-oxide-3-carboximidoyl chloride and its use in the treatment of insulin resistance” (Biorex Kutato es Fejleszto RT, priority 1999, dated 2003).

Tests used:
[1] = system: STZ-diabetic Wistar rats
Text: The experiments were accomplished on Wistar rats with a body weight of 320-350 g. Diabetes was induced and checked as described in Experiment 2. In the test animals having been diabetic for 3 weeks the left nervus ischidiacus was injured by freezing and the right side one was used as non-injured control. The regeneration was observed by monitoring the signals of the flexor reflex provoked by irritation of the sole that is areas under curve (AUC) of the electromyogram transferred from the forward tibial muscle. For the stimulation and detection the system described in Experiment 2 was used. Single daily doses of 10 mg/kg of Compound-A and 5 mg/kg of A(+) enantiomer were administred for 5 weeks after the injury by freezing.

[2] = system: STZ-diabetic Wistar rats; test: Experiment 3: diabetic autonomous neuropathy after 1 month of treatment; format: in vivo, rat; conditions: daily 20 mg/kg single dose
Procedure: The experiments were performed under anesthesia achieved by administering 60 mg/kg ip. pentobarbital sodium (Nembutal, Sanofi, Phylaxia). After this, an intratracheal tube or polyethylene canula was inserted into the fermoral artery and vein. The arterial catheter was connected to a pressure transducer for the simultaneous measurement of systolic and diastolic blood pressure (online automatic measuring and forwarding system, with a Haemosys computer program). After 20 minutes of equillibration period, the following substances were administered intravenously: Noradrenalin, 5 μg/kg iv.—Isoproterenol 0.4 μg/kg iv.—N.vagus stimulation (2 V, duration: 500 μsec, delay: 1 msec). The effects of the substances were monitored for 10 minutes.

[3] = system: STZ-diabetic rats; conditions: 2 month
Procedure: After anesthesia (Calypsovet, 125 mg/kg. Ip., Richter Rt., Hungary), the eyes were enucleated and fixed in 4% formaldehyde dissolved in a phosphate buffer (pH:7.4).
Afterwards, they were embedded in paraffin (Medim DDM P800, embedding center: Lignifer L-120-92-014, stainer: Shandon Eliott, Microtome: is Leica SM 2000 R, Microscope: Jenaval Karl Zeiss Jena). Several 6 micron sections of the eyes were prepared, and hematoxilyn/eosine (Fluka) and PAS (periodic acid-Schiff, Fluka) staining were used. The light-microscopic evaluation was performed at a magnification of 40× and 100×. Photographs and slide positives were prepared of representative samples.
The histological evaluation was performed on coded samples, the group division was unknown for the examiner. Pathological deviations of the retina were graded on a scale of 0-20, while those of the lens on a scale of 0-3.
The statistical calculations were done with the Statistica 4.5 (SatSoft, USA) program. The given value for negative cases was 0.1. A Box and Whisker plot graph was also prepared.
For each group in the experiment, the mean±SE (Standard Error) values were calculated, and the comparison was done with the help of a non-parametric Mann-Whitney U-test (Graphpad Instat, San Diego, Calif.).

[4] = system: STZ-diabetic Wistar rats; test: Experiment 5: urinary protein loss caused by diabetic nephropathy after 1-month treatment; format: in vivo, rat; conditions: for 24-hour Urinary Protein Loss Mean ± SE: 1 month; for effect on STZ-diabetes-induced urinary protein loss: Bimoclomol 20 mg/kg, Compound-A 10 mg/kg, (+) enantiomer 5 mg/kg daily
Procedure: For the 24-hour period of urine collection, the animals were placed in individual metabolic cages. During this period they were given water ad libitum but no food. The latter measure was necessary to prevent possible contamination by the protein content of the food. Urine was collected in calibrated glass containers, in which Thymol crystal (Reanal 3135-1-08-38) was placed to prevent bacterial contamination.
Before measurement, the urine samples were centrifuged (2500 rpm) and filtered through a paper filter (Whatmann 1). If necessary, they were stored at −20° C. until measurement.
The total protein content of the urine was determined by the Bradford staining method (Sigma B-6916, St. Louis, Mo.), and color intensity was detected by spectrophotometry (Hitachi-U-3200).

[5] = system: obese, insulin resistant, hyperinsulinaemic Zucker fa/fa rats; test: Experiment 1: carbohydrate metabolism (fasting glucose/insulin, ip glucose tolerance test) after 2-month treatment; format: in vivo, rat; conditions: for Fasting Blood Glucose (mean ± SE) / Fasting Insulin (mean ± SE) / Blood Glucose (AUC) (mean ± SE) / Insulin (AUC) (mean ± SE): 2-month treatment; for effect on AUC of insulin / effect on area under the blood glucose curve (AUC): intraperitoneal glucose tolerance test; for Blood Glucose (AUC) (mean ± SE) / Insulin (AUC) (mean ± SE): ip glucose tolerance test 2 g/kg, AUC 0-60 minutes; for effect on peripheral insulin resistance: summary of Experiment 1
Procedure: In the experiments so-called Zucker fa/fa rats (Charles River Laboratories Inc.) were used. In […] animals, obesity, insulin resistance, high blood insulin level, impaired glucose tolerance and hypertriglyceridaemia result from hypothalamic leptin receptor mutation. Due to the above characteristics, this is an accepted model of early type 2 diabetes.
The animals were placed in individual metabolic cages for 24 hours at the beginning of the study, and after 1 or 2 months of treatment for 24 hours of urine collection.
The animals were given either the test substances or physiological saline solution by gavage for control once a day between weeks 14-22.
Biochemical parameters of the blood and the urine were measured by a Kodak Ectachem 700 automatic analyzer. The total protein level of the urine was determined spectrophotometrically with the use of Bradford staining (Hitachi U-3200) at 595 nm. The insulin concentration of the serum was determined by the RIA method, using rat anti-insulin antibodies.
Systolic, diastolic blood pressure and heart rate were measured weekly on the tails of the rats (so-called tail cuff method) by a Letica 200 automatic analyzer. After two months of treatment, the level of glucose tolerance was determined by the intraperitoneal glucose tolerance test (2 g/kg ip.).

[6] = system: STZ-diabetic Wistar rats; test: Experiment 6: Compound-A and enantiomers, nerve conduction velocity after 1 month treatment
Procedure: In the experiments, male Wistar rats were used (Charles River Laboratories Inc.). At the start of the experiment, their weights were 340-370 g. Diabetes was induced by the intravenous administration of a single 45 mg/kg dose of streptozotocine (STZ, Sigma, St. Louis, Mo.) dissolved in physiological saline solution. The development of diabetes was checked after 1 day by a blood glucose test, accepting a value over 15 mmol/l.
The test and reference substances were administered p.os to the animals once a day.
For the determination of nerve conduction velocity (NCV), the method of Stanley, modified by De Konig and Gispen was used. The animals were anesthetized by the simultaneous administration of Hyponorm (1 mg/kg ip., Janssen, Tilburg, Denmark), fluanisone (10 mg/ml), and phentanyl citrate (0.2 mg/ml). Afterwards, the left ischiadicus and tibial nerves were stimulated at standard points. Supramaximal stimulus (square impulse, 0.03 ms) was used with a platinum needle electrode, through a Nihon-Kohden (model SEN-1104, Japan) stimulator. The electromyogram (EMG) transferred from the sole muscles and intensified by a myograph (Elema-Schonander, Stockholm, Sweden) was analyzed further by the Matlab for Windows (Mathwork Inc, UK) program. The extent of NCV damage caused by diabetes was expressed in m/s. The effectiveness of the treatment was compared to this in terms of percentage (%). The statistical calculations were done by unpaired t-test or single-criterion ANOVA test (along with the Newman-Keuls post hoc test).

[7] = system: STZ-diabetic Wistar rats; test: Experiment 4: histological alterations of early diabetic retinopathy after 1 month of treatment; format: in vivo, rat; conditions: for Score values Improvement % / Score values Mean ± SE (retinopathy histology) / effect on diabetic retinopathy induced pathological histological alterations: 1 month; for effect on diabetic retinopathy induced pathological histological alterations: Compound A 5 mg/kg, bimoclomol 20 mg/kg daily
Procedure: Photographs and slide positives were prepared of representative samples.
The given value for negative cases was 0.1. A Box and Whisker plot graph was also prepared.

[8] = system: STZ-diabetic Wistar rats; test: Experiment 2: peripheral neuropathy, nerve conduction velocity after 1-month treatment; format: in vivo, rat; conditions: for MNCV / MNCV improvement / SNCV / SNCV improvement: 1 month; for effect on motor (MNCV) and sensor (SNCV) nerve conduction velocities: bimoclomol 20 mg/kg, Compound A 5 mg/kg once a day
Text: (§1) (Graphpad Instat, San Diego, Calif.).

[9] = system: STZ diabetic Wistar rats; test: Preliminary test: N-oxide derivatives of bimoclomol on motor and sensor nerve conduction velocity deficit; format: in vivo, rat; conditions: 20 mg/kg
Procedure: In a preliminary test the effectiveness of the three N-oxide derivatives of bimoclomol on motor and sensor neuropathy in STZ diabetic Wistar rats were studied. The effectiveness of the three bimoclomol N-oxide derivatives in improving the peripheral motor and sensor nerve conduction velocity deficit caused by streptozotocine-induced diabetes was determined with use of the method described in detail in Experiment 2.
as §1

[10] = 1 month, isoproterenol 0.4 μg/kg iv.
[11] = Compound-A 10 mg/kg, enantiomers 5 mg/kg daily

O=C(O)/C=C\C(=O)O.[O-][n+]1cccc(C(Cl)=NOCC(O)CN2CCCCC2)c1 (stereo not shown) [Compound A, N-[2-hydroxy-3-(1-piperidinyl)-propoxy]-pyridine-1-oxide-3-carboximidoyl chloride (Z)-2-butenedioate (1:1)]
neuroregeneration of the non-freezed nerves ([1]; 10 mg/kg daily for 5 weeks): 44%
extent of neuroregeneration of the nerve injured by freezing ([1]; 10 mg/kg daily for 5 weeks after injury, 5. week, untreated 63%): 73%
effect on pathological deviations resulting from autonomous neuropathy [2]: significantly reduced
Heart left ventricular hypertrophy (deviation due to diabetes) ([2]; 1 month): ↑ (corrects)
Increased negative chronotropic effect on vagus stimulation ([2]; 1 month): ↑ (corrects)
Reduced hypotension on vagus stimulation ([2]; 1 month): ↑ (corrects)
Reduced IS induced systemic arterial hypotension [2, 10]: — (ineffective)
Scores lenticular + retinal improvement % ([3]; 10 mg/kg daily): 34.7%
Scores lenticular + retinal mean ± SE ([3]; 10 mg/kg daily): 4.55 ± 0.69
Scores retinal improvement % ([3]; 10 mg/kg daily): 65.8%
Scores retinal mean ± SE ([3]; 10 mg/kg daily): 1.80 ± 0.75
effect on lenticular and retinal pathologic histological alterations [3, 11]: not significant
effect on retinal histological alterations only [3, 11]: effective
24-hour Urinary Protein Loss Mean ± SE ([4]; 10 mg/kg daily, series 2): 12.06 ± 1.70 mg/24 h
effect on STZ-diabetes-induced urinary protein loss [4]: non-significantly reduced
effect on fasting blood glucose ([5]; 20 mg/kg p.os daily): significantly reduced
effect on fasting insulin concentration ([5]; 20 mg/kg p.os daily): significantly reduced
reduction of fasting insulin concentration ([5]; 20 mg/kg p.os daily): approx. 50%
Fasting Blood Glucose (mean ± SE) ([5]; 20 mg/kg p.os daily): 8.267 ± 0.436 mmol/L
Fasting Insulin (mean ± SE) ([5]; 20 mg/kg p.os daily): 11.176 ± 1.955 ng/mL
effect on AUC of insulin [5]: reduced it significantly, to the same level as the Lean control
effect on area under the blood glucose curve (AUC) [5]: neither bimoclomol, nor Compound A effected
Blood Glucose (AUC) (mean ± SE) ([5]; 20 mg/kg p.os daily): 1418.40 ± 194.57
Insulin (AUC) (mean ± SE) ([5]; 20 mg/kg p.os daily): 790.35 ± 166.08
effect on peripheral insulin resistance [5]: significantly reduces
MNCV ([6]; 10 mg/kg daily, 1 month): 59.3 ± 0.3 m/s
MNCV improvement ([6]; 10 mg/kg daily, 1 month): 78.9%
SNCV improvement ([6]; 10 mg/kg daily, 1 month): 79.2%
effect on motor (MNCV) and sensory (SNCV) nerve conduction velocity deficits [6, 11]: significantly improved
Score values Improvement % ([7]; 5 mg/kg daily): 74.5%
Score values Mean ± SE (retinopathy histology) ([7]; 5 mg/kg daily): 4.028 ± 0.961
comparison of the two compounds versus diabetic, non-treated animals ([7]; Compound A 5 mg/kg vs bimoclomol 20 mg/kg): statistically more effective
effect on diabetic retinopathy induced pathological histological alterations [7]: significantly improved
MNCV ([8]; 5 mg/kg p.os once a day): 57.4 ± 0.3 m/s
MNCV improvement ([8]; 5 mg/kg p.os once a day): 79.5%
SNCV ([8]; 5 mg/kg p.os once a day): 58.4 ± 0.3 m/s
SNCV improvement ([8]; 5 mg/kg p.os once a day): 77.6%
MNCV ([8]; 10 mg/kg p.os once a day): 59.2 ± 0.3 m/s
MNCV improvement ([8]; 10 mg/kg p.os once a day): 90.4%
SNCV ([8]; 10 mg/kg p.os once a day): 60.4 ± 0.4 m/s
SNCV improvement ([8]; 10 mg/kg p.os once a day): 89.0%
MNCV ([8]; 20 mg/kg p.os once a day): 59.1 ± 0.3 m/s
MNCV improvement ([8]; 20 mg/kg p.os once a day): 89.8%
SNCV ([8]; 20 mg/kg p.os once a day): 60.1 ± 0.3 m/s
SNCV improvement ([8]; 20 mg/kg p.os once a day): 87.4%
effect on motor (MNCV) and sensor (SNCV) nerve conduction velocities [8]: significantly improved
effect of an increase in the dose over 10 mg/kg on NCV improvement ([8]; dose over 10 mg/kg): did not increase the effect

O=C(O)/C=C\C(=O)O.OC(CON=C(Cl)c1cccnc1)CN1CCCCC1 (racemic) [bimoclomol, maleate of O-(3-piperidino-2-hydroxy-1-propyl)-3-pyridyne hydroxymic acid-chloride, reference compound]
effect on pathological deviations resulting from autonomous neuropathy [2]: significantly reduced
Increased negative chronotropic effect on vagus stimulation ([2]; 1 month): ↑ (corrects)
Reduced hypotension on vagus stimulation ([2]; 1 month): ↑ (corrects)
Systemic arterial hypotension (deviation due to diabetes) ([2]; 1 month): ↑ (corrects)
Weight loss (deviation due to diabetes) ([2]; 1 month): ↑ (corrects)
Reduced IS induced positive chronotropic effect [2, 10]: ↑ (corrects)
Reduced IS induced systemic arterial hypotension [2, 10]: ↑ (corrects)
Reduced NA induced systemic arterial pressure response ([2]; 1 month, noradrenalin 5 μg/kg iv.): ↑ (corrects)
24-hour Urinary Protein Loss Mean ± SE ([4]; 20 mg/kg daily, series 1): 3.66 ± 1.39 mg/24 h
effect on STZ-diabetes-induced urinary protein loss [4]: significantly reduced
effect on fasting blood glucose ([5]; 20 mg/kg p.os daily): significantly reduced
effect on fasting insulin concentration ([5]; 20 mg/kg p.os daily): did not effect
Fasting Blood Glucose (mean ± SE) ([5]; 20 mg/kg p.os daily): 8.179 ± 0.316 mmol/L
Fasting Insulin (mean ± SE) ([5]; 20 mg/kg p.os daily): 29.362 ± 9.211 ng/mL
effect on AUC of insulin [5]: had no effect
effect on area under the blood glucose curve (AUC) [5]: neither bimoclomol, nor Compound A effected
Blood Glucose (AUC) (mean ± SE) ([5]; 20 mg/kg p.os daily): 1286.86 ± 131.59
Insulin (AUC) (mean ± SE) ([5]; 20 mg/kg p.os daily): 2337.71 ± 590.49
effect on peripheral insulin resistance [5]: does not
Improvement of nerve conduction velocity (%) motor (MNCV) [9]: 72,4%
Improvement of nerve conduction velocity (%) sensor (SNCV) [9]: 66,9%
Score values Improvement % ([7]; 20 mg/kg daily): 61.3%
Score values Mean ± SE (retinopathy histology) ([7]; 20 mg/kg daily): 5.185 ± 1.019
effect on diabetic retinopathy induced pathological histological alterations [7]: significantly improved
MNCV ([8]; 20 mg/kg p.os once a day): 57.4 ± 0.2 m/s
MNCV improvement ([8]; 20 mg/kg p.os once a day): 79.7%
SNCV ([8]; 20 mg/kg p.os once a day): 58.5 ± 0.6 m/s
SNCV improvement ([8]; 20 mg/kg p.os once a day): 77.9%
effect on motor (MNCV) and sensor (SNCV) nerve conduction velocities [8]: significantly improved
